Read-outs that look alike come from different tables or passages of the source.

The text below walks through data of patent publication US11149031B2, “Substituted N-(3-fluoropropyl)-pyrrolidine compounds, processes for their preparation and therapeutic uses thereof” (SANOFI, priority 2016, dated 2021).

For experiment [1], the target named is His6-ERα298-554 WT (ERα ligand-binding domain) (Homo sapiens (Human), UniProt P03372). The experiment is described as follows: Test A: biochemical antagonist activity, LanthaScreen TR-FRET ERα coactivator assay, WT. As to conditions: read-out: Antagonism WT IC50. The method, boiled down:
(§1)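 His6-ERα LBD (aa 298–554), 0.5 nM, with Tb-anti-His6 antibody, 250 nM PGC1a peptide and 3 nM (or 10 nM) estradiol in pH 7.4 potassium phosphate/DTT buffer; incubated with compound overnight at room temperature. IC50 from 4-parameter logistic fit of TR-FRET 520:495 nm ratio.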

The target of experiment [2] is His6-ERα298-554 Y537S mutant (ERα ligand-binding domain) (Homo sapiens (Human), UniProt P03372, Y537S). Put plainly: Test A: biochemical antagonist activity, LanthaScreen TR-FRET ERα coactivator assay, Y537S mutant. As to conditions: read-out: Antagonism Y537S IC50. Summed up:
as §1

Experiment [3] has as its target His6-ERα298-554 D538G mutant (ERα ligand-binding domain) (Homo sapiens (Human), UniProt P03372, D538G). Put plainly: Test A: biochemical antagonist activity, LanthaScreen TR-FRET ERα coactivator assay, D538G mutant. Conditions: read-out: Antagonism D538G IC50. Summed up: as §1
Experiment [4] has as its system MCF7 cells expressing mutant estrogen receptor Asp 538 Gly. Put plainly: Test B: cell proliferation/viability assay (CellTiter-Glo) on MCF7 Asp 538 Gly mutant. It counts as cell-based. Conditions: Homo sapiens, MCF7, 168 h, MCF7 cells expressing ER Asp 538 Gly mutant, 7 days of compound exposure, read-out: proliferation MCF7 D538G IC50. The method, boiled down:
(§2)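 Parental MCF7 or MCF7 lines transfected with Tyr 537 Ser or Asp 538 Gly ER mutants (selected for estradiol-independent growth) were grown in phenol red-free MEM with 5% charcoal dextran-stripped FBS. Cells were treated with 9-point 1:5 dilutions (3-0.000001 μM final) for 7 days, then read by CellTiter-Glo luminescence.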

Experiment [5] concerns MCF7 cells (breast tumor cells) WT. The experiment is described as follows: Test B: cell proliferation/viability assay (CellTiter-Glo) on MCF7 WT. It counts as cell-based. Conditions: Homo sapiens, MCF7, 168 h, 7 days of compound exposure. Summed up:
as §2
In general terms: ATP-based viability assays read luminescence as a measure of living cells.

The test system of experiment [6] is MCF7 cells expressing mutant estrogen receptor Tyr 537 Ser. Put plainly: Test B: cell proliferation/viability assay (CellTiter-Glo) on MCF7 Tyr 537 Ser mutant. In kind it is cell-based. As to conditions: Homo sapiens, MCF7, 168 h, MCF7 cells expressing ER Tyr 537 Ser mutant, 7 days of compound exposure, read-out: proliferation MCF7 Y537S IC50. Summed up:
as §2

The target of experiment [7] is ERα in MCF7 cells (Homo sapiens (Human), UniProt P03372). Put plainly: Test C: estrogen receptor degradation activity, ERα in cell western assay in MCF7 cells. As to conditions: for DC50: 4 hours post compound addition, ERα in cell western, read-out: Degradation IC50; for % Degradation at 3 μM: 4 hours, relative to fulvestrant. In kind it is cell-based. Summed up: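 MCF7 cells in phenol red-free MEM alpha with 5% charcoal-dextran stripped FBS were treated 4 h with compound (9-point 1:5 dilutions, 3–0.000018 μM final; fulvestrant 0.1 μM as positive control). Fixed cells were immunostained for ERα (Alexa 488) and counterstained with Syto-64 for DNA.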
Sequence of ERα in MCF7 cells (P03372 whole entry): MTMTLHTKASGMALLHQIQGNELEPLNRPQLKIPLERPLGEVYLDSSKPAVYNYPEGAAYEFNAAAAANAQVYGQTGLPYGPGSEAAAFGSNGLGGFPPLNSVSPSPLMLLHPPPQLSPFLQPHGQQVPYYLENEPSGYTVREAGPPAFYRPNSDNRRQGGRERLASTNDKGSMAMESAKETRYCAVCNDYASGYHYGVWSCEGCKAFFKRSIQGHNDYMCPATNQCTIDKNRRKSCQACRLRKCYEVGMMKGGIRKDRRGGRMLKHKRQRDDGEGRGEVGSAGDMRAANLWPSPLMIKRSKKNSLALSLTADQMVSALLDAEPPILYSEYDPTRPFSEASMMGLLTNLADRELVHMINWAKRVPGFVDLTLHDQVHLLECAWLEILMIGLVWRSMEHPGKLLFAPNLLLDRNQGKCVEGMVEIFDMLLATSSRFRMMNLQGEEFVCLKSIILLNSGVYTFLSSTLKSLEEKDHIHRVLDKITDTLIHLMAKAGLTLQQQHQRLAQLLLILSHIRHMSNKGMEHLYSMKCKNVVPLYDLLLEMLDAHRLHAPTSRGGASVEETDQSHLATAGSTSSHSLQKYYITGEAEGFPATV

Setting [8] is: asterisk (*): protocol using 10 nM estradiol.

Sequence of His6-ERα298-554 D538G mutant (ERα ligand-binding domain) (P03372 298-554 D538G): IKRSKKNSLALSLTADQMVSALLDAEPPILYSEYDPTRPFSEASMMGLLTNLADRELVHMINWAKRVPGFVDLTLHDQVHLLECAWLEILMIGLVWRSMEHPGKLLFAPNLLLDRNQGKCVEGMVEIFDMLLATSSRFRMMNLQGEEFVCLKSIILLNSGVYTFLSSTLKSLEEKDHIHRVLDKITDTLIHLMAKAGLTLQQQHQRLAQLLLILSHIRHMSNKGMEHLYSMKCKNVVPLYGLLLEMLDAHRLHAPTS
Sequence of His6-ERα298-554 Y537S mutant (ERα ligand-binding domain) (P03372 298-554 Y537S): as the sequence (P03372 298-554 D538G) above, with Y240S, G241D counted along it
Sequence of His6-ERα298-554 WT (ERα ligand-binding domain) (P03372 298-554): as the sequence (P03372 298-554 D538G) above, with G241D counted along it

`Oc1ccc2c(c1)SCCC(c1ccc3cc[nH]c3c1)=C2c1ccc(O[C@H]2CCN(CCCF)C2)cc1` [Example 172, 5-[4-[(3S)-1-(3-fluoropropyl)pyrrolidin-3-yl]oxyphenyl]-4-(1H-indol-6-yl)-2,3-dihydro-1-benzothiepin-8-ol]: the IC50 came out at 6 nM in experiment [1] (protocol with 3 nM estradiol); 18 nM in experiment [2] (protocol with 3 nM estradiol); 24 nM in experiment [3] (protocol with 3 nM estradiol); 2 nM in experiment [4]; 0.2 nM in experiment [5]; 12 nM in experiment [6]. In experiment [7], the DC50 worked out at 0.4 nM. Moreover, the “% Degradation at 3 μM” value in experiment [7] was determined as 87%.

As to `Oc1ccc2c(c1)SCCC(c1ccc3c(c1)CCN3)=C2c1ccc(O[C@H]2CCN(CCCF)C2)cc1` [Example 176, 5-[4-[(3S)-1-(3-fluoropropyl)pyrrolidin-3-yl]oxyphenyl]-4-indolin-5-yl-2,3-dihydro-1-benzothiepin-8-ol], the IC50 in experiment [1] (protocol with 3 nM estradiol) stood at 6 nM; in experiment [2] (protocol with 3 nM estradiol), 20 nM; in experiment [3] (protocol with 3 nM estradiol), 28 nM; in experiment [4] it was 9 nM; in experiment [5] it was 3 nM; in experiment [6] it was 48 nM. In experiment [7], the DC50 came to 0.2 nM. Also, the “% Degradation at 3 μM” value in experiment [7] turned out to be 85%.

Take `Oc1ccc2c(c1)SCCC(c1cccc3[nH]ccc13)=C2c1ccc(O[C@H]2CCN(CCCF)C2)cc1` [Example 178, 5-[4-[(3S)-1-(3-fluoropropyl)pyrrolidin-3-yl]oxyphenyl]-4-(1H-indol-4-yl)-2,3-dihydro-1-benzothiepin-8-ol]: the IC50 in experiment [1] (protocol with 3 nM estradiol) was determined as 2 nM; in experiment [2] (protocol with 3 nM estradiol), 7 nM; in experiment [3] (protocol with 3 nM estradiol) it was 10 nM; in experiment [4], 2 nM; in experiment [5], 0.5 nM; in experiment [6], 16 nM. Besides, the DC50 in experiment [7] was found to be 0.4 nM. Further, the “% Degradation at 3 μM” value in experiment [7] was found to be 87%.

Take `Oc1ccc2c(c1)SCCC(c1cnc3c(c1)CCN3)=C2c1ccc(O[C@H]2CCN(CCCF)C2)cc1` [Example 183, 4-(2,3-dihydro-1H-pyrrolo[2,3-b]pyridin-5-yl)-5-[4-[(3S)-1-(3-fluoropropyl)pyrrolidin-3-yl]oxyphenyl]-2,3-dihydro-1-benzothiepin-8-ol]: the IC50 in experiment [1] (protocol with 3 nM estradiol) is 7 nM; in experiment [2] (protocol with 3 nM estradiol), 70 nM; in experiment [3] (protocol with 3 nM estradiol), 122 nM; in experiment [4], 5 nM; in experiment [5], 1 nM; in experiment [6], 73 nM. Moreover, the DC50 in experiment [7] was 1 nM. For the same compound, in experiment [7], the “% Degradation at 3 μM” value turned out to be 83%.

Regarding `Oc1ccc2c(c1)SCCC(c1ccc3occc3c1)=C2c1ccc(O[C@H]2CCN(CCCF)C2)cc1` [Example 184, 4-(benzofuran-5-yl)-5-[4-[(3S)-1-(3-fluoropropyl)pyrrolidin-3-yl]oxyphenyl]-2,3-dihydro-1-benzothiepin-8-ol], the IC50 in experiment [1] (protocol with 3 nM estradiol) was determined as 1 nM; in experiment [2] (protocol with 3 nM estradiol) it was 4 nM; in experiment [3] (protocol with 3 nM estradiol) it was 6 nM; in experiment [4] it was 0.7 nM; in experiment [5] it was 0.3 nM; in experiment [6], 4 nM. Further, the DC50 in experiment [7] is 0.7 nM. Moreover, in experiment [7], the “% Degradation at 3 μM” value is listed as 87%.

In the case of `CCOc1ccc(C2=C(c3ccc(O[C@H]4CCN(CCCF)C4)cc3)c3ccc(O)cc3SCC2)cc1F` [Example 185, 4-(4-ethoxy-3-fluoro-phenyl)-5-[4-[(3S)-1-(3-fluoropropyl)pyrrolidin-3-yl]oxyphenyl]-2,3-dihydro-1-benzothiepin-8-ol], the IC50 in experiment [1] (protocol with 3 nM estradiol) is 2.9 nM; in experiment [2] (protocol with 3 nM estradiol) it was 65 nM; in experiment [3] (protocol with 3 nM estradiol), 104 nM; in experiment [4], 1 nM; in experiment [5], 0.4 nM; in experiment [6], 6 nM. In experiment [7], the DC50 came to 0.7 nM. In addition, the “% Degradation at 3 μM” value in experiment [7] is recorded as 84%.

In the case of `CCOc1ccc(C2=C(c3ccc(O[C@H]4CCN(CCCF)C4)cc3)c3ccc(O)cc3SCC2)c(C)c1` [Example 186, 4-(4-ethoxy-2-methyl-phenyl)-5-[4-[(3S)-1-(3-fluoropropyl)pyrrolidin-3-yl]oxyphenyl]-2,3-dihydro-1-benzothiepin-8-ol], the IC50 worked out at 1 nM in experiment [1] (setting [8]); 16 nM in experiment [2] (setting [8]); 21 nM in experiment [3] (setting [8]); 0.4 nM in experiment [4]; 0.3 nM in experiment [5]; 5 nM in experiment [6]. The DC50 in experiment [7] was found to be 0.6 nM. Besides, the “% Degradation at 3 μM” value in experiment [7] amounted to 85%.

For the compound `CCOc1ccc(C2=C(c3ccc(O[C@H]4CCN(CCCF)C4)cc3)c3ccc(O)cc3SCC2)c(F)n1` [Example 187, 4-(6-ethoxy-2-fluoro-3-pyridyl)-5-[4-[(3S)-1-(3-fluoropropyl)pyrrolidin-3-yl]oxyphenyl]-2,3-dihydro-1-benzothiepin-8-ol], the IC50 in experiment [1] (protocol with 3 nM estradiol) turned out to be 1.5 nM; in experiment [2] (protocol with 3 nM estradiol), 22 nM; in experiment [3] (protocol with 3 nM estradiol), 43 nM; in experiment [4] it was 0.7 nM; in experiment [5], 0.2 nM; in experiment [6] it was 4 nM. Further, the DC50 in experiment [7] turned out to be 0.5 nM. Also, the “% Degradation at 3 μM” value in experiment [7] was 92%.

Turning to `Oc1ccc2c(c1)SCCC(c1ccc(F)c(OC(F)F)c1)=C2c1ccc(O[C@H]2CCN(CCCF)C2)cc1` [Example 188, 4-[3-(difluoromethoxy)-4-fluoro-phenyl]-5-[4-[(3S)-1-(3-fluoropropyl)pyrrolidin-3-yl]oxyphenyl]-2,3-dihydro-1-benzothiepin-8-ol], the IC50 was 8.2 nM in experiment [1] (protocol with 3 nM estradiol); 157 nM in experiment [2] (protocol with 3 nM estradiol); 266 nM in experiment [3] (protocol with 3 nM estradiol); 2 nM in experiment [4]; 0.2 nM in experiment [5]; 4 nM in experiment [6]. Further, the DC50 in experiment [7] is 0.8 nM. Further, the “% Degradation at 3 μM” value in experiment [7] was 90%.

Take `COc1ccc(C2=C(c3ccc(O[C@H]4CCN(CCCF)C4)cc3)c3ccc(O)cc3SCC2)c(F)c1` [Example 189, 4-(2-fluoro-4-methoxy-phenyl)-5-[4-[(3S)-1-(3-fluoropropyl)pyrrolidin-3-yl]oxyphenyl]-2,3-dihydro-1-benzothiepin-8-ol]: the IC50 amounted to 2 nM in experiment [1] (setting [8]); 19 nM in experiment [2] (setting [8]); 31 nM in experiment [3] (setting [8]); 1 nM in experiment [4]; 0.2 nM in experiment [5]; 4 nM in experiment [6]. Besides, the DC50 in experiment [7] is 0.3 nM. In experiment [7], the “% Degradation at 3 μM” value came to 88%.

Regarding `Oc1ccc2c(c1)SCCC(c1ccc(OC(F)(F)F)c(F)c1)=C2c1ccc(O[C@H]2CCN(CCCF)C2)cc1` [Example 190, 5-[4-[(3S)-1-(3-fluoropropyl)pyrrolidin-3-yl]oxyphenyl]-4-[3-fluoro-4-(trifluoromethoxy)phenyl]-2,3-dihydro-1-benzothiepin-8-ol], the IC50 in experiment [1] (setting [8]) is 39 nM; in experiment [2] (setting [8]), 425 nM; in experiment [3] (setting [8]) it was 638 nM; in experiment [4], 0.8 nM; in experiment [5], 0.2 nM; in experiment [6] it was 6 nM. For the same compound, in experiment [7], the DC50 came out at 0.5 nM. Also, in experiment [7], the “% Degradation at 3 μM” value came out at 91%.

Turning to `Oc1ccc2c(c1)SCCC(c1ccc(OC(F)F)c(F)c1)=C2c1ccc(O[C@H]2CCN(CCCF)C2)cc1` [Example 191, 4-[4-(difluoromethoxy)-3-fluoro-phenyl]-5-[4-[(3S)-1-(3-fluoropropyl)pyrrolidin-3-yl]oxyphenyl]-2,3-dihydro-1-benzothiepin-8-ol], the IC50 was 3 nM in experiment [1] (protocol with 3 nM estradiol); 32 nM in experiment [2] (protocol with 3 nM estradiol); 51 nM in experiment [3] (protocol with 3 nM estradiol); 0.4 nM in experiment [4]; 0.3 nM in experiment [5]; 3 nM in experiment [6]. Moreover, the DC50 in experiment [7] worked out at 0.2 nM. In addition, the “% Degradation at 3 μM” value in experiment [7] is given as 95%.

Regarding `Cc1ccc(C2=C(c3ccc(O[C@H]4CCN(CCCF)C4)cc3)c3ccc(O)cc3SCC2)c(F)n1` [Example 192, 4-(2-fluoro-6-methyl-3-pyridyl)-5-[4-[(3S)-1-(3-fluoropropyl)pyrrolidin-3-yl]oxyphenyl]-2,3-dihydro-1-benzothiepin-8-ol], the IC50 in experiment [1] (setting [8]) came to 9 nM; in experiment [2] (setting [8]) it was 109 nM; in experiment [3] (setting [8]) it was 205 nM; in experiment [4] it was 0.9 nM; in experiment [5], 0.3 nM; in experiment [6] it was 5 nM. The DC50 in experiment [7] was 0.4 nM. In addition, in experiment [7], the “% Degradation at 3 μM” value is 91%.
